Measured values: patent publication US11564923B2, “Compounds and pharmaceutical compositions thereof for the treatment of inflammatory disorders” (Galapagos NV, priority 2017, dated 2023)

Assays:
[1] = system: IL-12 activation of STAT4 in NK-92 cells; experiment: IL-12 activation of STAT4 in NK-92 cells using AphaLISA SureFire technology; type: cell-based; conditions: Homo sapiens, NK92; IL-12 activation of STAT4 in NK-92 cells, AlphaLISA SureFire; average IC50; read-out: IL12 pSTAT4 IC50
Procedure, shortened: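 NK-92 cells, starved of rhIL-2 overnight, were stimulated with rhIL-12 for 30 min at 37 °C with test compounds, then lysed. Phospho-STAT4 (Tyr693) was read by AlphaLISA SureFire. Percent inhibition versus the vehicle-plus-trigger signal was fitted by sigmoidal nonlinear regression to give IC50, averaged over experiments.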

[2] = target: T1, Recombinant human TYK2 catalytic domain (amino acids 871-1187) (Homo sapiens, UniProt P29597); experiment: TYK2 ADPglo kinase assay; type: biochemical; note: 12 µM ATP
T1 construct: catalytic domain (amino acids 871-1187)
T1 sequence (P29597 871-1187): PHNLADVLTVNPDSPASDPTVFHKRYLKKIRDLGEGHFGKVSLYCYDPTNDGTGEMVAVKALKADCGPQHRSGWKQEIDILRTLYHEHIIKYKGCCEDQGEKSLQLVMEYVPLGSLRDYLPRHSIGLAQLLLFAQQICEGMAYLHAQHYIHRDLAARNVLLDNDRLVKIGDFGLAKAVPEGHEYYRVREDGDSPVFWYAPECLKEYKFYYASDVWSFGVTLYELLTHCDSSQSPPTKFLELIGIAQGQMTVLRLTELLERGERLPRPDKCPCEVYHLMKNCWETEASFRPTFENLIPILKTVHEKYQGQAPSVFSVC
Procedure: After 120 min at room temperature, reactions were stopped and the remaining ATP is depleted by adding 5 μL/well of ADP Glo Reagent (Promega, catalog number V912B). After 40 min at room temperature, 10 μl Kinase Detection Reagent (Kinase Detection Substrate (Promega, catalog number V914B) dissolved in Kinase Detection Buffer (Promega, catalog number V913B)) is added to convert ADP to ATP and to measure this newly synthesized ATP in a luciferase/luciferin reaction. Readout is performed after 30 min incubation at room temperature using the Envision. Kinase activity is calculated by subtracting the relative light units (RLU) obtained in the presence of a positive control inhibitor (10 μM staurosporine) from the RLU obtained in the presence of vehicle. The ability of a test compound to inhibit this activity (or percentage inhibition) is determined as:
RLU test compound=RLU determined for sample with test compound present
RLU control=RLU determined for sample with positive control inhibitor
RLU vehicle=RLU determined in the presence of vehicle
Dose dilution series were prepared for the compounds enabling the testing of dose-response effects in the TYK2 assay and the calculation of the IC50 for the compound. Each compound is routinely tested at concentration of 20 μM followed by a 1/5 serial dilution, 10 points in a final concentration of 1% DMSO. […] The data are expressed as the average IC50 from the assays.

[3] = system: IFNα activation of STAT1 in PBMC; experiment: IFNα activation of STAT1 in PBMC; type: cell-based; conditions: Homo sapiens; IFNα activation of STAT1 in PBMC; average IC50; read-out: IFNα signaling inhibitory potency IC50
Procedure, shortened: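 Human PBMC, with red cells lysed by NH4Cl, were pre-treated with compound for 30 min at 37 °C and 5% CO2. They were then stimulated for 30 min with recombinant human IFNα at 5 ng/mL final.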

[4] = system: IL-12 activation of STAT4 in NK-92 cells; experiment: IL-12 activation of STAT4 in NK-92 cells using MSD as readout; type: cell-based; conditions: Homo sapiens, NK92; NK-92 cells, rhIL-12 25 ng/mL, MSD readout; read-out: IL12 pSTAT4 IC50
Procedure: IL-2 is added freshly to the medium with each medium refreshment step. Cells are cultured in a humidified incubator at 37° C. 5% CO2.
NK-92 cells are pre-incubated with test compounds or vehicle for 30 min at 37° C. 5% CO2. […] NK-92 cells are triggered with rhIL-12 for 45 min at 37° C. 5% CO2.
After 45 min of cytokine stimulation the cells are lysed by addition of 50 μL ice-cold lysis buffer (supplemented with the MSD kit). Plates are frozen at −80° C. for minimal 1 hour to lyse the cells completely. After thawing the levels of phospho-STAT4 are quantified using the Phospho-STAT4 (Tyr693) kit (MSD, Catalogue number K150PAD-2) according to the manufacturer's instructions. Electroluminescent signal is measured on the MSD reader.
The percentage inhibition is calculated as: […]
RLU (trigger/veh): Relative lumescent signal determined in presence of vehicle and trigger
RLU (test compound): Relative luminescent signal determined in presence of test compounds)
PIN values are plotted for compounds tested in dose-response and IC50 values are derived using LIMS Software applying non-linear regression (sigmoidal) curve fitting. The data are expressed as the average IC50 from different experiments.

[5] = target: T1, Recombinant human TYK2 catalytic domain (amino acids 871-1187); experiment: TYK2 radioactive assay polyGT substrate; type: biochemical; note: 0.1 µM ATP
Procedure, shortened: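 Reaction at 30° C. for 120 min, ended with 150 mM phosphoric acid, washed, counted; percent inhibition scaled between vehicle and 10 μM staurosporine cpm.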

[6] = target: T2, Recombinant human JAK2 (catalytic domain, amino acids 808-1132) (Homo sapiens, UniProt O60674); experiment: JAK2 inhibition assay; type: biochemical; conditions: read-out: JAK2 potency IC50; note: 0.7 µM ATP
T2 construct: catalytic domain, amino acids 808-1132

[7] = target: T3, Recombinant human JAK1 (catalytic domain, amino acids 866-1154) (Homo sapiens, UniProt P23458); experiment: JAK1 inhibition assay; type: biochemical; conditions: read-out: JAK1 potency IC50
T3 construct: catalytic domain, amino acids 866-1154

[8] = target: Recombinant human JAK3 catalytic domain (amino acids 781-1124) (Homo sapiens, UniProt P52333); experiment: JAK3 inhibition assay; type: biochemical
Procedure, shortened: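 Radiometric kinase reaction run 45 min at 30° C., stopped with phosphoric acid; activity as vehicle cpm minus 10 μM staurosporine cpm.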

T2 sequence (O60674 808-1132): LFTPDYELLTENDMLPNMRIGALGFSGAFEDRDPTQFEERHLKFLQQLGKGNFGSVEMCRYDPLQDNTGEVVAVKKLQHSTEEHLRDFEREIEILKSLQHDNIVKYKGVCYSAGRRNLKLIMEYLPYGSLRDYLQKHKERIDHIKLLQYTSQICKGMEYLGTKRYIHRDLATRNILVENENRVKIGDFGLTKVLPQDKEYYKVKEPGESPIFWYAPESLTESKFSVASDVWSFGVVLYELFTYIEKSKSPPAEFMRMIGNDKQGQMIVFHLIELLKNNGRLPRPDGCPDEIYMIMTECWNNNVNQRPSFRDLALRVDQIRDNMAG
Sequence of Recombinant human JAK3 catalytic domain (amino acids 781-1124) (P52333 781-1124): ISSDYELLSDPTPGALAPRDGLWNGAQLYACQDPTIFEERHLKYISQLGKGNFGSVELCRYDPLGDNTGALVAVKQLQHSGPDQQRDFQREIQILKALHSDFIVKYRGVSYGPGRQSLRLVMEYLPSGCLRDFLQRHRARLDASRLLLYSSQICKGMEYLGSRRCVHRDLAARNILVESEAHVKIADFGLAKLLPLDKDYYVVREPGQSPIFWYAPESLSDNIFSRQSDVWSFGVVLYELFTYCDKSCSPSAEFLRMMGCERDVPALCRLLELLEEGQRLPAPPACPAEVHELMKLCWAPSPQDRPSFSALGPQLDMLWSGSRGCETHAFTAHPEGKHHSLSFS
T3 sequence (P23458 866-1154): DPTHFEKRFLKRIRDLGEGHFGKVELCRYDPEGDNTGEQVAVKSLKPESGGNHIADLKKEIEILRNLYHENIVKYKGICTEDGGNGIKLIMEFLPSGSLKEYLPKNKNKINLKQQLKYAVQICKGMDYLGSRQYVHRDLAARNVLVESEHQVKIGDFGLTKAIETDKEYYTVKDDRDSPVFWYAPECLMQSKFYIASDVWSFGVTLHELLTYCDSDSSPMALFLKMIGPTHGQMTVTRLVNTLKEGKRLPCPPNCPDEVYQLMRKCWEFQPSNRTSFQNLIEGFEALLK

| SMILES | IC50 [1] [nM] | IC50 [2] [nM] | IC50 [3] [nM] | IC50 [4] [nM] | IC50 [5] [nM] | IC50 [6] [nM] | IC50 [7] [nM] | IC50 [8] [nM] |
| --- | --- | --- | --- | --- | --- | --- | --- | --- |
| Cc1cc(C#N)ncc1Oc1cc(Nc2ccc(N3CCOC(C(C)C)C3)nn2)c2ncn(C)c2n1 (stereo in doubt) [Compound 173, 4-methyl-5-[3-methyl-7-[[6-[(2R)-2-propan-2-ylmorpholin-4-yl]pyridazin-3-yl]amino]imidazo[4,5-b]pyridin-5-yl]oxypyridine-2-carbonitrile] | 33 | 1.3 | 114 | – | – | – | – | – |
| Cc1cc(C#N)ncc1Oc1cc(Nc2ccc(N3CCOC(C(C)C)C3)nn2)c2ncn(C)c2n1 (stereo in doubt) [Compound 177, 4-methyl-5-[3-methyl-7-[[6-[(2S)-2-propan-2-ylmorpholin-4-yl]pyridazin-3-yl]amino]imidazo[4,5-b]pyridin-5-yl]oxypyridine-2-carbonitrile] | 24 | 1.2 | 71 | – | – | – | – | – |
| CC1COCCC1N(C)c1cc(Nc2cc(N)ncn2)c2ncn(C)c2n1 (stereo not drawn) [Compound 19, N7-(6-Amino-pyrimidin-4-yl)-3,N5-dimethyl-N5-(3-methyl-tetrahydro-pyran-4-yl)-3H-imidazo[4,5-b]pyridine-5,7-diamine] | 72 | – | – | 806 | 10.7 | 11.2 | 80.9 | 231 |
| Cc1cc(C#N)ncc1Oc1cc(Nc2ccc(C(=O)N3CCN(C4CC4)CC3)cn2)c2ncn(C)c2n1 [Compound 48, 5-[7-[[5-(4-cyclopropylpiperazine-1-carbonyl)pyridin-2-yl]amino]-3-methylimidazo[4,5-b]pyridin-5-yl]oxy-4-methylpyridine-2-carbonitrile] | 56 | 0.48 | 63 | – | 0.84 | – | – | – |
| Cc1cc(C#N)ncc1Oc1cc(Nc2ccc(C(F)(F)F)cn2)c2ncn(C)c2n1 [Compound 59, 4-methyl-5-[3-methyl-7-[[5-(trifluoromethyl)-2-pyridyl]amino]imidazo[4,5-b]pyridin-5-yl]oxy-pyridine-2-carbonitrile] | – | – | 407 | 4720 | 69.2 | 133 | 461 | 3780 |
| Cc1cc(C#N)ncc1Oc1cc(Nc2ccc(S(=O)(=O)N3CCOCC3)cc2)c2ncn(C)c2n1 [Compound 63] | – | – | 128 | 1140 | 7.58 | 70 | 102 | 584 |
| Cc1cc(C#N)ncc1Oc1cc(Nc2ccc(N3CCO[C@@H](CO)C3)nn2)c2ncn(C)c2n1 [Compound 163, 5-[7-[[6-[(2R)-2-(hydroxymethyl)morpholin-4-yl]pyridazin-3-yl]amino]-3-methylimidazo[4,5-b]pyridin-5-yl]oxy-4-methylpyridine-2-carbonitrile] | – | 1.06 | – | – | – | – | – | – |
| Cc1cc(C#N)ncc1Oc1cc(Nc2ccc(N3CCO[C@H](CO)C3)nn2)c2ncn(C)c2n1 [Compound 165, 5-[7-[[6-[(2S)-2-(hydroxymethyl)morpholin-4-yl]pyridazin-3-yl]amino]-3-methylimidazo[4,5-b]pyridin-5-yl]oxy-4-methylpyridine-2-carbonitrile] | – | 1.09 | – | – | – | – | – | – |
| Cc1cc(C#N)ncc1Oc1cc(Nc2ccc(N3CCCOCC3)nn2)c2ncn(C)c2n1 [Compound 167, 4-methyl-5-[3-methyl-7-[[6-(1,4-oxazepan-4-yl)pyridazin-3-yl]amino]imidazo[4,5-b]pyridin-5-yl]oxypyridine-2-carbonitrile] | 88 | 2.55 | 129 | – | – | – | – | – |
| Cc1cc(C#N)ncc1Oc1cc(Nc2ccc(N3CCOC(CO)C3)nn2)c2ncn(C)c2n1 (stereo not drawn) [Compound 169, 5-[7-[[6-[2-(hydroxymethyl)morpholin-4-yl]pyridazin-3-yl]amino]-3-methylimidazo[4,5-b]pyridin-5-yl]oxy-4-methylpyridine-2-carbonitrile] | 665 | 1.47 | 147 | – | – | – | – | – |
| Cc1cc(C#N)ncc1Oc1cc(Nc2ccc(N3CC4CCC(C3)O4)nn2)c2ncn(C)c2n1 [Compound 170, 4-methyl-5-[3-methyl-7-[[6-(8-oxa-3-azabicyclo[3.2.1]octan-3-yl)pyridazin-3-yl]amino]imidazo[4,5-b]pyridin-5-yl]oxypyridine-2-carbonitrile] | 73 | 1.46 | 83 | – | – | – | – | – |
| Cc1cc(C#N)ncc1Oc1cc(Nc2ccc(N3CCOC(C#N)C3)nn2)c2ncn(C)c2n1 (stereo not drawn) [Compound 171, 4-[6-[[5-(6-cyano-4-methylpyridin-3-yl)oxy-3-methylimidazo[4,5-b]pyridin-7-yl]amino]pyridazin-3-yl]morpholine-2-carbonitrile] | 127 | 0.88 | 45 | – | – | – | – | – |
| Cc1cc(C#N)ncc1Oc1cc(Nc2ccc(N3CCO[C@H](C)C3)nn2)c2ncn(C)c2n1 [Compound 172, 4-methyl-5-[3-methyl-7-[[6-[(2R)-2-methylmorpholin-4-yl]pyridazin-3-yl]amino]imidazo[4,5-b]pyridin-5-yl]oxypyridine-2-carbonitrile] | 58 | 0.92 | 66 | – | – | – | – | – |
| Cc1cc(C#N)ncc1Oc1cc(Nc2ccc(N3C[C@@H]4C[C@H]3CO4)nn2)c2ncn(C)c2n1 [Compound 174, 4-methyl-5-[3-methyl-7-[[6-[(1S,4S)-2-oxa-5-azabicyclo[2.2.1]heptan-5-yl]pyridazin-3-yl]amino]imidazo[4,5-b]pyridin-5-yl]oxypyridine-2-carbonitrile] | 61 | 1.03 | 72 | – | – | – | – | – |
| Cc1cc(C#N)ncc1Oc1cc(Nc2ccc(N3CCOC(C)(C)C3)nn2)c2ncn(C)c2n1 [Compound 175, 5-[7-[[6-(2,2-dimethylmorpholin-4-yl)pyridazin-3-yl]amino]-3-methylimidazo[4,5-b]pyridin-5-yl]oxy-4-methylpyridine-2-carbonitrile] | 137 | 2.64 | 94 | – | – | – | – | – |
